In US6194387A, “6-O-aklyl erythromycin B oxime” (Abbott Laboratories, priority 1999, dated 2001):
Values after ≈ are worked out from the molar mass of the structure shown. Where two headings read alike, the source gives them in different places.

Columns and labels:
STAP[…] = test: in vitro antibacterial activity, agar dilution MIC; type: cell-based, Staphylococcus agalactiae; conditions: Staphylococcus, read-out: SMIC
Description: (§1) 6-O-Methyl-9-oxime erythromycin B prepared in accordance with Examples 1 and 2 was assayed in vitro for anitbacterial activity as follows: Twelve petri dishes containing successive aqueous dilutions of the test compound mixed with 10 mL of sterilized Brain Heart Infusion (BHI) agar (Difco 0418-01-5) were prepared. Each plate was inoculated with 1:100 (or 1:10 for slow-growing strains, such as Micrococcus and Streptococcus) dilutions of up to 32 different micoorganisims, using a Steers replicatore block. The inoculated plates were incubated at 35-37° C. for 20 to 24 hours. In addition, a control plate, using BHI agar containing no test compound, was prepared and incubated at the beginning and end of each test.
(§2) An additional plate containing a compound having known susceptibility patterns for the organisms being tested and belonging to the same antibiotic class as the test compound was also prepared and incubated as further control, as well as to provide test-to-test comparability. Erythromycin A was used for this purpose.
(§3) After incubation, each disk was read. The minimum inhibitory concentration (MIC) was defined as the lowest concentration of drug yielding no growth, a slight haze, or sparsely isolated colonies on the inoculum spot as compared to the growth control.

EN[…] [1] = test: in vitro antibacterial activity, agar dilution MIC; type: cell-based, Enterobacter aerogenes; conditions: Klebsiella aerogenes, ATCC13048, read-out: SMIC
Description: as §1, §2, §3

M[…] [2] = test: in vitro antibacterial activity, agar dilution MIC; type: cell-based, Micrococcus pyogenes; conditions: Staphylococcus aureus, ATCC9341, read-out: SMIC
Description: as §1, §2, §3

CANDIDA ALBICANS = test: in vitro antimicrobial activity, agar dilution MIC; type: cell-based; conditions: read-out: SMIC
Description: as §1, §2, §3

[3] = test system: STAPHYLOCOCCUS PNEUMONIAE; test: in vitro antibacterial activity, agar dilution MIC; type: cell-based
Description: as §1, §2, §3

EN[…] [4] = test: in vitro antibacterial activity, agar dilution MIC; type: cell-based; conditions: Enterococcus faecium, ATCC8043, read-out: SMIC
Description: as §1, §2, §3

MYCOBACTERIIUM SMEGMATIS = test: in vitro antibacterial activity, agar dilution MIC; type: cell-based; conditions: read-out: SMIC
Description: as §1, §2, §3

KLEBSIELLA PNEUMONIAE = test: in vitro antibacterial activity, agar dilution MIC; type: cell-based; conditions: ATCC8045, read-out: SMIC
Description: as §1, §2, §3

HAEMOPHILUS INFLUENZAE = test: in vitro antibacterial activity, agar dilution MIC; type: cell-based
Description: as §1, §2, §3

STAPHYLOCOCCUS AUREUS = test: in vitro antibacterial activity, agar dilution MIC; type: cell-based
Description: as §1, §2, §3

STAPHYLOCOCCUS BOVIS = test: in vitro antibacterial activity, agar dilution MIC; type: cell-based; conditions: read-out: SMIC
Description: as §1, §2, §3

PROVIDENCIA STUART II = test: in vitro antibacterial activity, agar dilution MIC; type: cell-based; conditions: read-out: SMIC
Description: as §1, §2, §3

PSEUDOMONAS CEPACIA = test: in vitro antibacterial activity, agar dilution MIC; type: cell-based; conditions: Burkholderia cepacia; Table 2; 2961; read-out: SMIC
Description: as §1, §2, §3

[5] = test system: STAPHYLOCOCCUS EPIDERMIDIS; test: in vitro antibacterial activity, agar dilution MIC; type: cell-based; conditions: read-out: SMIC
Description: as §1, §2, §3

[6] = test system: ACINETOBACTER CALCOACETICUS; test: in vitro antibacterial activity, agar dilution MIC; type: cell-based; conditions: read-out: SMIC
Description: as §1, §2, §3

PSEUDOMONAS AERUGINOSA = test: in vitro antibacterial activity, agar dilution MIC; type: cell-based
Description: as §1, §2, §3

STAPHYLOCOCCUS PYOGENES = test: in vitro antibacterial activity, agar dilution MIC; type: cell-based
Description: as §1, §2, §3

M[…] [7] = test: in vitro antibacterial activity, agar dilution MIC; type: cell-based; conditions: Micrococcus luteus, ATCC4698, read-out: SMIC
Description: as §1, §2, §3

NOCARDIA ASTEROIDES = test: in vitro antibacterial activity, agar dilution MIC; type: cell-based; conditions: ATCC9970, Table 2, ATCC 9970, read-out: SMIC
Description: as §1, §2, §3

**Q.** What does the source list for `CC[C@H]1OC(=O)[C@H](C)[C@@H](O[C@H]2C[C@@](C)(OC)[C@@H](O)[C@H](C)O2)[C@H](C)[C@@H](O[C@@H]2O[C@H](C)C[C@H](N(C)C)[C@H]2O)[C@](C)(O)C[C@@H](C)C(=O)[C@H](C)[C@@H](O)[C@]1(C)O` [Erythromycin A, reference compound]?
**A.** MIC (STAP[…]): 0.01 µg/mL (≈ 0.0136 µM); MIC (EN[…] [1]): > 100 µg/mL; MIC (M[…] [2]): 0.01 µg/mL (≈ 0.0136 µM); MIC (CANDIDA ALBICANS): > 100 µg/mL; MIC ([3]; read-out: SIMC, Table 3, 5649): 8 µg/mL (≈ 10.9 µM); MIC ([3]; read-out: SIMC, Table 3, 5654): 16 µg/mL (≈ 21.8 µM); MIC ([3]; read-out: SIMC, Table 3, 5728): 128 µg/mL (≈ 174 µM); MIC ([3]; read-out: SIMC, Table 3, 5737): 128 µg/mL (≈ 174 µM); MIC ([3]; read-out: SIMC, Table 3, 5979): 128 µg/mL (≈ 174 µM); MIC ([3]; read-out: SIMC, Table 3, GYR 1171): 0.03 µg/mL (≈ 0.0409 µM); MIC (EN[…] [4]): 0.05 µg/mL (≈ 0.0681 µM); MIC (MYCOBACTERIIUM SMEGMATIS): 12.5 µg/mL (≈ 17 µM); MIC (KLEBSIELLA PNEUMONIAE): > 100 µg/mL; MIC (HAEMOPHILUS INFLUENZAE; ATCC10211, read-out: SIMC, Table 3, ATCC 10211): 8 µg/mL (≈ 10.9 µM); MIC (HAEMOPHILUS INFLUENZAE; ATCC19418, read-out: SIMC, Table 3, ATCC 19418): 8 µg/mL (≈ 10.9 µM); MIC (HAEMOPHILUS INFLUENZAE; ATCC43095, read-out: SIMC, Table 3, ATCC 43095): 1 µg/mL (≈ 1.36 µM); MIC (HAEMOPHILUS INFLUENZAE; read-out: SIMC, Table 3, CMX 503B): 8 µg/mL (≈ 10.9 µM); MIC (HAEMOPHILUS INFLUENZAE; read-out: SIMC, Table 3, CMX 504): 8 µg/mL (≈ 10.9 µM); MIC (HAEMOPHILUS INFLUENZAE; read-out: SIMC, Table 3, CMX 519A): 4 µg/mL (≈ 5.45 µM); MIC (HAEMOPHILUS INFLUENZAE; read-out: SIMC, Table 3, CMX 566A): 4 µg/mL (≈ 5.45 µM); MIC (HAEMOPHILUS INFLUENZAE; read-out: SIMC, Table 3, CMX 588A): 4 µg/mL (≈ 5.45 µM); MIC (HAEMOPHILUS INFLUENZAE; read-out: SIMC, Table 3, CMX 632A): 4 µg/mL (≈ 5.45 µM); MIC (HAEMOPHILUS INFLUENZAE; read-out: SIMC, Table 3, CMX 747C): 8 µg/mL (≈ 10.9 µM); MIC (HAEMOPHILUS INFLUENZAE; read-out: SIMC, Table 3, CMX 751): 8 µg/mL (≈ 10.9 µM); MIC (HAEMOPHILUS INFLUENZAE; read-out: SIMC, Table 3, GYR 1177): 0.25 µg/mL (≈ 0.341 µM); MIC (HAEMOPHILUS INFLUENZAE; read-out: SIMC, Table 3, GYR 1435): 2 µg/mL (≈ 2.73 µM); MIC (HAEMOPHILUS INFLUENZAE; read-out: SIMC, Table 3, SOL AMP R): 4 µg/mL (≈ 5.45 µM); MIC (HAEMOPHILUS INFLUENZAE; read-out: SIMC, Table 3, SPK AMP R): 4 µg/mL (≈ 5.45 µM); MIC (STAPHYLOCOCCUS AUREUS; ATCC6538P, read-out: SMIC, Table 2, ATCC 6538P): 0.39 µg/mL (≈ 0.531 µM); MIC (STAPHYLOCOCCUS AUREUS; read-out: SMIC, Table 2, 1775): > 100 µg/mL; MIC (STAPHYLOCOCCUS AUREUS; read-out: SMIC, Table 2, A5177): 12.5 µg/mL (≈ 17 µM); MIC (STAPHYLOCOCCUS AUREUS; read-out: SMIC, Table 2, A-5278): > 100 µg/mL; MIC (STAPHYLOCOCCUS AUREUS; read-out: SMIC, Table 2, CMX 553): 0.39 µg/mL (≈ 0.531 µM); MIC (STAPHYLOCOCCUS AUREUS; read-out: SMIC, Table 2, CMX 642A): 0.39 µg/mL (≈ 0.531 µM); MIC (STAPHYLOCOCCUS AUREUS; read-out: SMIC, Table 2, NCTC10649M): 0.39 µg/mL (≈ 0.531 µM); MIC (STAPHYLOCOCCUS BOVIS): 0.01 µg/mL (≈ 0.0136 µM); MIC (PROVIDENCIA STUART II): > 100 µg/mL; MIC (PSEUDOMONAS CEPACIA): > 100 µg/mL; MIC [5]: 0.2 µg/mL (≈ 0.273 µM); MIC [6]: 12.5 µg/mL (≈ 17 µM); MIC (PSEUDOMONAS AERUGINOSA; read-out: SMIC, Table 2, 5007): > 100 µg/mL; MIC (PSEUDOMONAS AERUGINOSA; read-out: SMIC, Table 2, BMH10): 100 µg/mL (≈ 136 µM); MIC (PSEUDOMONAS AERUGINOSA; read-out: SMIC, Table 2, DPHD-2862): > 100 µg/mL; MIC (PSEUDOMONAS AERUGINOSA; read-out: SMIC, Table 2, DPHD-5263): > 100 µg/mL; MIC (PSEUDOMONAS AERUGINOSA; read-out: SMIC, Table 2, K799/61): 0.78 µg/mL (≈ 1.06 µM); MIC (PSEUDOMONAS AERUGINOSA; read-out: SMIC, Table 2, K799/wt): > 100 µg/mL; MIC (STAPHYLOCOCCUS PYOGENES; read-out: SIMC, Table 3, 930): 128 µg/mL (≈ 174 µM); MIC (STAPHYLOCOCCUS PYOGENES; read-out: SIMC, Table 3, EES61): 0.03 µg/mL (≈ 0.0409 µM); MIC (STAPHYLOCOCCUS PYOGENES; read-out: SIMC, Table 3, PIU 2548): 16 µg/mL (≈ 21.8 µM); MIC (STAPHYLOCOCCUS PYOGENES; read-out: SMIC, Table 2, 930): > 100 µg/mL; MIC (STAPHYLOCOCCUS PYOGENES; read-out: SMIC, Table 2, EES61): 0.01 µg/mL (≈ 0.0136 µM); MIC (STAPHYLOCOCCUS PYOGENES; read-out: SMIC, Table 2, PIU 2548): 6.2 µg/mL (≈ 8.45 µM); MIC (M[…] [7]): 0.39 µg/mL (≈ 0.531 µM); MIC (NOCARDIA ASTEROIDES): 5 ng/mL (≈ 0.00681 µM)
